The data set is described as follows: gradient 5% acetonitrile 3 min, to 50% in 2 min, to 85% in 15 min, held 3 min, 100 µL/min. The conditions noted are these: column: Zorbax Extend-C18 2.1 x 50 mm; eluents: water / acetonitrile, 0.1% formic acid. The gist of the method:
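Data were gathered over 3 months by HPLC coupled to a quadrupole time-of-flight mass spectrometer, operated in positive and negative ionization mode. Mixtures of ~100 pure standards ran on a Zorbax Extend-C18 column (2.1 × 50 mm, 1.8 μm) at 100 μL/min, with water and acetonitrile each containing 0.1% formic acid and dead and dwell volumes of 40 μL and 900 μL. Retention time was read from adduct peaks picked by computer and checked manually.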
For the molecule `CSCc1csc(NC(=O)c2ccc(F)c(F)c2)n1`, the RP-LC retention time turned out to be 857 s. To `Cc1ccc(N2CCC(NC(=O)Nc3ccccc3Cl)C2=O)cc1C` (stereo unspecified) belongs 909 s. To `NC(=O)C1CCN(C(=O)Cn2c(=O)n(C3CCCCC3)c(=O)c3cc(Br)ccc32)CC1` belongs 771 s. As for `CSc1ccccc1NC(=O)CCCn1cccc1`, the RP-LC retention time stood at 1000 s. To `COc1ccc(NC(=O)N2CCOc3ccc(C)cc32)cc1OC` belongs 827 s; to `COC(=O)c1ccccc1Nc1c(-c2ccc(C)cc2)nc2cnc(Br)cn12`, 1190 s. The result for `CC(=O)N[C@@H]1CN(C(=O)Cc2ccccc2Br)C[C@H]1CO` reads 610 s. In the case of `CCOC(=O)C1CCN(CC(=O)Nc2oc3ccccc3c(=O)c2-c2ccccc2)CC1`, the RP-LC retention time was found to be 586 s.

`CCOC(=O)c1c(-c2cccnc2)n(C)c2cc(-c3cccnc3)c(OC)cc12` had an RP-LC retention time of 634 s. The result for `C[C@@H](CN1CCC(Cc2ccccc2)CC1)[C@@H](O)c1ccc(O)cc1` reads 737 s; that for `O=C(Cn1ccc2ccc(N3CCOCC3)nc21)NCc1ccco1`, 773 s. The result for `CCc1cc(C(=O)Nc2ccc(OC)cc2)nc2cc(-c3ccccn3)nn12` reads 1000 s; that for `CCN1C(=O)C2CCCN2C(=O)c2ccccc21` (stereo unspecified), 639 s.

As for `O=C(Nc1ccc(F)cc1)c1cn(CC(O)c2ccc3c(c2)OCO3)nn1` (stereo unspecified), the RP-LC retention time turned out to be 777 s. For the molecule `CCS(=O)(=O)N1CC(=O)N(c2ccc(F)cc2C)C(C)(C(=O)NC2CCCCCCC2)C1` (stereo unspecified), the RP-LC retention time amounted to 997 s. The result for `O=C(NCc1cccs1)c1ccc2c(c1)CC(=O)N2Cc1ccc(F)cc1` reads 840 s. The result for `O=C(NCc1ccc2c(c1)CCCN2C(=O)C1CC1)c1ccc(Br)o1` reads 840 s. Take `CCOC(=O)c1ccc(N2C=C(C#N)S(=O)(=O)c3ccc(F)cc32)cc1`: the RP-LC retention time was determined as 972 s. The result for `O=C(NCc1ccc2c(c1)OCCCO2)c1ccc(Br)cc1` reads 884 s. The molecule `O=C(Cn1nc2c(c1NC(=O)c1c(F)cccc1Cl)CSC2)NCc1ccco1` gave an RP-LC retention time of 750 s. To `COc1ccc(S(=O)(=O)N2CCC(c3noc(-c4ccncc4)n3)C2)cc1` (stereo unspecified) belongs 816 s; to `Cc1ccc(-c2noc(-c3cccc(S(=O)(=O)N4CCCCC4)c3)n2)cc1`, 1340 s; to `Cc1ccc(C(=O)N2C[C@@H](F)C[C@H]2C(=O)N2CCc3ccccc3C2)s1`, 800 s.

The molecule `Cc1ccc(-c2noc(-c3sccc3NC(=O)C3(c4ccccc4)CC3)n2)cc1` displayed an RP-LC retention time of 828 s. To `COc1ccc(-n2ncc3c(=O)n(Cc4nc(-c5cccc(C(F)(F)F)c5)no4)cnc32)cc1` belongs 1130 s. With `Cc1cc2nn(CC(=O)NCc3ccccc3)c(=O)n2c(-c2ccc(F)cc2)n1`, the RP-LC retention time is 781 s.

`CCCC(=O)NCCn1c(=O)n(Cc2ccccc2)c2cccnc21` gave an RP-LC retention time of 718 s.

Regarding `COc1ccccc1N1CCN(C(=O)C2CCN(c3ncnc4c3oc3ccccc34)CC2)CC1`, the RP-LC retention time was found to be 765 s. Turning to `CC1(C(=O)NCc2ccccc2)CCCN(C(=O)Nc2ccc(Cl)cc2)C1` (stereo unspecified), the RP-LC retention time came out at 962 s. To `CSc1cccc(NC(=O)Nc2nc(-c3ccccc3)cs2)c1` belongs 1090 s; to `CN(Cc1ccco1)C(=O)CC1CCN(C(=O)c2cc3cc(Cl)ccc3[nH]2)CC1`, 897 s.

Take `CCC(C)NC(=O)c1nnc(-c2ccc(S(=O)(=O)N3CCOCC3)cc2)o1` (stereo unspecified): the RP-LC retention time is 787 s. The result for `COC(=O)c1cc(S(=O)(=O)N2CCCC2C(=O)Nc2cccc(C)n2)cn1C` (stereo unspecified) reads 773 s; that for `COCn1c(-c2ccc(OC)c(OC)c2)nc2ccccc21`, 573 s; that for `COc1ccccc1C1NC(=O)NC(C)=C1C(=O)OC1CCCC1C` (stereo unspecified), 924 s. To `CCC(C)NC(=O)CC1CCN(C(=O)c2[nH]c(C)c(C(=O)OC(C)C)c2C)CC1` (stereo unspecified) belongs 775 s; to `O=C(CN1CCN(Cc2ccccc2F)C1=O)N1CCN(c2ccccc2)CC1`, 778 s; to `Cc1ccc(CN2CCn3c(nn(CC4CC4)c3=O)C2)nc1`, 561 s. The result for `COCCC(=O)N1CCC(N2C(=O)C(OC)C23CCOCC3)CC1` (stereo unspecified) reads 555 s; that for `COc1ccc(-c2nnc(-c3ccc(C)c(S(=O)(=O)N4CCC(C)CC4)c3)o2)cc1OC`, 1150 s. Molecule `CS(=O)(=O)Nc1ccc(C2(C(=O)NCCC3=CCCCC3)CCCCC2)cc1` gave an RP-LC retention time of 1030 s.

`Cc1csc(-c2cc(S(=O)(=O)NCCc3ccc(Cl)cc3)c(C)s2)n1`: the RP-LC retention time came out at 1110 s. The result for `CCC(=O)Nc1ccc(CCc2nc3ccc(C(=O)NC4CCCC4)cc3[nH]2)cc1` reads 625 s. To `CCC1CN(C(=O)N2CCC(C(=O)NCCN3CCN(CC)CC3)CC2)c2cc(C)ccc2O1` (stereo unspecified) belongs 616 s; to `Cc1ccc(S(=O)(=O)NCc2ccccn2)c(C)c1C`, 626 s. To `CCc1noc(NC(C)=O)c1-c1ccc(C)c(S(=O)(=O)NC2CCC(C)CC2)c1` (stereo unspecified) belongs 937 s; to `CCc1ccc(N2C=C(C(=O)OC)S(=O)(=O)c3ccccc32)cc1`, 942 s. With `Cc1cccc(-c2ncccc2CNC(=O)c2ccco2)c1`, the RP-LC retention time came out at 596 s. To `CS(=O)(=O)NC1CCN(C(=O)C2CCCC2)C1` (stereo unspecified) belongs 691 s. Regarding `Cc1oc(-c2cccs2)nc1COc1cc(C)c2c(C)nn(C)c2n1`, the RP-LC retention time amounted to 1060 s.

`Cc1cc(C)n2nc(SCC(=O)NCc3ccccc3Cl)nc2n1`: the RP-LC retention time came to 698 s. Take `Cc1ccc(F)cc1S(=O)(=O)N1CCn2c(nnc2C2CCN(C(C)C)C2)C1` (stereo unspecified): the RP-LC retention time was 608 s. The result for `CCOCc1nc(C2CCCN2S(=O)(=O)c2c(C)nn(C)c2C)no1` (stereo unspecified) reads 691 s; that for `O=C1CN(Cc2ccccc2)[C@H]2CS(=O)(=O)C[C@H]2N1c1ccc(Br)cc1`, 845 s; that for `CCNc1cc(N2CCC(CCC(=O)NCc3ccccc3C)CC2)ncn1`, 651 s.

Take `CCOC(=O)c1c(CN2CCOCC2)n(C)c2cc(-c3cccnc3)c(O)cc12`: the RP-LC retention time was 535 s. To `O=C(NC1CC1)C1CCN(c2nc3ccc(-c4ccc(F)cc4)nc3s2)CC1` belongs 878 s; to `COc1ccccc1-c1nocc1CCC(=O)O`, 686 s; to `Cc1cccc(-c2nn3c(N(C)C)cc(C)nc3c2C)c1`, 716 s. To `COc1ccc(C(=O)N2C[C@@H]3C[C@H]2C[C@@H]3NS(=O)(=O)c2ccccc2)cn1` belongs 716 s; to `CCCCC(=O)N1CCN(c2nc3ccccc3n(CC(C)C)c2=O)CC1`, 1110 s.
